Experimental data reported in patent publication US20210380595A1 (ARAXES PHARMA LLC, priority 2018, published 2021).

Molecular target: T1, KRAS G12C 1-169, his-tagged protein, GDP-loaded (Homo sapiens, UniProt P01116, G12C)
T1 construct: KRAS G12C 1-169, his-tagged protein, GDP-loaded
Assay: Biochemical assay: covalent modification of KRAS G12C measured by mass spectrometry (RapidFire/TOF or Q-Exactive); also: time not given here
Format: binding
Procedure, shortened: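 GDP-loaded KRAS G12C 1-169 (his-tagged, 2 μM or 0.5 μM in 20 mM Hepes, 150 mM NaCl, 1 mM MgCl2) reacted with compound at 32 μM or 8 μM final, then quenched with formic acid. Intact-protein LC-MS (RapidFire/TOF or Q-Exactive) with charge-envelope deconvolution; % modification from modified vs unmodified peak intensities.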

[1] = tested at a concentration of 8 μM

| Compound | Bind % (tested at 32 μM) | Bind % [1] |
| --- | --- | --- |
| C=CC(=O)N1CC2(CCN(c3cc(N4CCC(O)CC4)cc(-c4c(C)ccc5[nH]ncc45)c3C#N)CC2)C1 [Compound I-81, 2-(2-acryloyl-2,7-diazaspiro[3.5]nonan-7-yl)-4-(4-hydroxypiperidin-1-yl)-6-(5-methyl-1H-indazol-4-yl)benzonitrile] | + (+ indicates binding activity greater than 0% and up to 50%) | – |
| C=CC(=O)N1CC2(CCN(c3cc(OCCCN(C)C)c(OC)c(-c4c(C)ccc5cnn(C)c45)c3C#N)CC2)C1 [Compound I-104] | + (+ indicates binding activity greater than 0% and up to 50%) | – |
| C=CC(=O)N1CC2(CCN(c3cc(N4CCCC(N(C)C)C4)cc(-c4c(C)ccc5[nH]ncc45)c3C#N)C2)C1 (stereo not drawn) [Compound I-33, 2-(2-acryloyl-2,6-diazaspiro[3.4]octan-6-yl)-4-(3-(dimethylamino)piperidin-1-yl)-6-(5-methyl-1H-indazol-4-yl)benzonitrile] | – | +++ (+++ indicates binding activity greater than 75%) |
| C=CC(=O)N1CCC2(CC1)CCN(c1cc(OCc3ccccn3)cc(-c3c(C)ccc4[nH]ncc34)c1C#N)C2 [Compound I-58, 2-(8-acryloyl-2,8-diazaspiro[4.5]decan-2-yl)-6-(5-methyl-1H-indazol-4-yl)-4-(pyridin-2-ylmethoxy) benzonitrile] | + (+ indicates binding activity greater than 0% and up to 50%) | – |
| C=CC(=O)N1CC2(CCN(c3cc(N4CCOCC4)cc(-c4c(C)ccc5[nH]ncc45)c3C#N)C2)C1 [Compound I-7, 2-(2-acryloyl-2,6-diazaspiro[3.4]octan-6-yl)-6-(5-methyl-1H-indazol-4-yl)-4-morpholino-benzonitrile] | +++ (+++ indicates binding activity greater than 75%) | – |
| C=CC(=O)N1CC2(CCN(c3cc(N4CCC(CN(C)C)CC4)cc(-c4c(C)ccc5[nH]ncc45)c3C#N)C2)C1 [Compound I-32, 2-(2-acryloyl-2,6-diazaspiro[3.4]octan-6-yl)-4-(4-((dimethylamino)methyl)piperidin-1-yl)-6-(5-methyl-1H-indazol-4-yl)benzonitrile] | – | +++ (+++ indicates binding activity greater than 75%) |
| Cc1ccc2[nH]ncc2c1-c1cc(OCc2ccccn2)cc(N2CCC3(CN(C(=O)/C=C/CN(C)C)C3)C2)c1C#N [Compound I-60, (E)-2-(2-(4-(dimethylamino)but-2-enoyl)-2,6-diazaspiro[3.4]octan-6-yl)-6-(5-methyl-1H-indazol-4-yl)-4-(pyridin-2-ylmethoxy) benzonitrile] | – | + (+ indicates binding activity greater than 0% and up to 50%) |
| C=CC(=O)N1CC2(CCN(c3ccc(F)c(-c4c(C)ccc5[nH]ncc45)c3C#N)CC2)C1 [Compound I-106, 6-(2-acryloyl-2,7-diazaspiro[3.5]nonan-7-yl)-3-fluoro-2-(5-methyl-1H-indazol-4-yl)benzonitrile] | + (+ indicates binding activity greater than 0% and up to 50%) | – |
| C=CC(=O)N1CC2(CCN(c3ccc(Nc4ccccc4)c(-c4c(C)ccc5[nH]ncc45)c3C#N)CC2)C1 [Compound I-115, 6-(2-acryloyl-2,7-diazaspiro[3.5]nonan-7-yl)-2-(5-methyl-1H-indazol-4-yl)-3-(phenylamino) benzonitrile] | + (+ indicates binding activity greater than 0% and up to 50%) | – |
| C=CC(=O)N1CC2(CCN(c3cc(N4CCOCC4)cc(-c4c(C)ccc5cnn(C)c45)c3C#N)C2)C1 [Compound I-16, 2-(2-acryloyl-2,6-diazaspiro[3.4]octan-6-yl)-6-(1,6-dimethyl-1H-indazol-7-yl)-4-morpholino-benzonitrile] | +++ (+++ indicates binding activity greater than 75%) | – |
| C=CC(=O)N1CC2(CCN(c3ccc(OC)c(-c4c(C)ccc5[nH]ncc45)c3C#N)C2)C1 [Compound I-37, 6-(2-acryloyl-2,6-diazaspiro[3.4]octan-6-yl)-3-methoxy-2-(5-methyl-1H-indazol-4-yl)benzonitrile] | – | + (+ indicates binding activity greater than 0% and up to 50%) |
| C=CC(=O)N1CCC2(C1)CN(c1cccc(-c3c(O)cccc3F)c1C#N)C2 [Compound I-10, 3-(6-acryloyl-2,6-diazaspiro[3.4]octan-2-yl)-2′-fluoro-6′-hydroxy-[1,1′-biphenyl]-2-carbonitrile] | + (+ indicates binding activity greater than 0% and up to 50%) | – |
| C=CC(=O)N1CC2(CCN(c3cccc(-c4c(C)ccc5[nH]ncc45)c3C#N)CC2)C1 [Compound I-116, 2-(2-acryloyl-2,7-diazaspiro[3.5]nonan-7-yl)-6-(5-methyl-1H-indazol-4-yl)benzonitrile] | + (+ indicates binding activity greater than 0% and up to 50%) | – |
| C=CC(=O)N1CC2(CCN(c3cc(N4CCOCC4)c(F)c(-c4c(C)ccc5[nH]ncc45)c3C#N)CC2)C1 [Compound I-80, 6-(2-acryloyl-2,7-diazaspiro[3.5]nonan-7-yl)-3-fluoro-2-(5-methyl-1H-indazol-4-yl)-4-morpholino-benzonitrile] | – | + (+ indicates binding activity greater than 0% and up to 50%) |
| C=CC(=O)N1CC2(CCN(c3cc(N4CCN(C)C(=O)C4)cc(-c4c(C)ccc5[nH]ncc45)c3C#N)C2)C1 [Compound I-30, 2-(2-acryloyl-2,6-diazaspiro[3.4]octan-6-yl)-6-(5-methyl-1H-indazol-4-yl)-4-(4-methyl-3-oxopiperazin-1-yl)benzonitrile] | – | ++ (++ indicates binding activity from 50 to 75%) |
| C=CC(=O)N1CC2(CCN(c3cc(N4CC(N5CCOCC5)C4)c(F)c(-c4c(C)ccc5[nH]ncc45)c3C#N)CC2)C1 [Compound I-123, 6-(2-acryloyl-2,7-diazaspiro[3.5]nonan-7-yl)-3-fluoro-2-(5-methyl-1H-indazol-4-yl)-4-(3-morpholino-azetidin-1-yl)benzonitrile] | + (+ indicates binding activity greater than 0% and up to 50%) | – |
| C=CC(=O)N1CC2(CCN(c3cc(OCc4ccccn4)cc(-c4c(C)ccc5[nH]nc(C)c45)c3C#N)C2)C1 [Compound I-71, 2-(2-acryloyl-2,6-diazaspiro[3.4]octan-6-yl)-6-(3,5-dimethyl-1H-indazol-4-yl)-4-(pyridin-2-ylmethoxy) benzonitrile] | – | +++ (+++ indicates binding activity greater than 75%) |
| Cc1ccc2[nH]ncc2c1-c1cc(N2CCCC(O)C2)cc(N2CCC3(CN(C(=O)/C=C/CN(C)C)C3)C2)c1C#N (stereo not drawn) [Compound I-70, (E)-2-(2-(4-(dimethylamino)but-2-enoyl)-2,6-diazaspiro[3.4]octan-6-yl)-4-(3-hydroxypiperidin-1-yl)-6-(5-methyl-1H-indazol-4-yl)benzonitrile] | ++ (++ indicates binding activity from 50 to 75%) | – |
| C=CC(=O)N1CC2(C1)CN(c1cc(OCc3ccccn3)cc(-c3c(C)ccc4[nH]ncc34)c1C#N)C2 [Compound I-72, 2-(6-acryloyl-2,6-diazaspiro[3.3]heptan-2-yl)-6-(5-methyl-1H-indazol-4-yl)-4-(pyridin-2-ylmethoxy) benzonitrile] | – | +++ (+++ indicates binding activity greater than 75%) |
| Cc1ccc2[nH]ncc2c1-c1c(F)ccc(N2CCC3(CN(C(=O)/C=C/CN(C)C)C3)C2)c1C#N [Compound I-46, (E)-6-(2-(4-(dimethylamino)but-2-enoyl)-2,6-diazaspiro[3.4]octan-6-yl)-3-fluoro-2-(5-methyl-1H-indazol-4-yl)benzonitrile] | + (+ indicates binding activity greater than 0% and up to 50%) | – |
| C=CC(=O)N1CC2(CCN(c3ccc(OC4CCN(C)CC4)c(-c4c(C)ccc5cnn(C)c45)c3C#N)CC2)C1 [Compound I-109, 6-(2-acryloyl-2,7-diazaspiro[3.5]nonan-7-yl)-2-(1,6-dimethyl-1H-indazol-7-yl)-3-((1-methylpiperidin-4-yl)oxy)benzo-nitrile] | + (+ indicates binding activity greater than 0% and up to 50%) | – |
| C=CC(=O)N1CC2(CCN(c3ccc(OCCCN(C)C)c(-c4c(C)ccc5[nH]ncc45)c3C#N)C2)C1 [Compound I-57, 6-(2-acryloyl-2,6-diazaspiro[3.4]octan-6-yl)-3-(3-(dimethylamino)propoxy)-2-(5-methyl-1H-indazol-4-yl)benzonitrile] | + (+ indicates binding activity greater than 0% and up to 50%) | – |
| C=CC(=O)N1CC2(CCN(c3cc(OCc4ccccn4)cc(-c4c(C)ccc5[nH]ncc45)c3C#N)C2)C1C (stereo not drawn) [Compound I-129, 2-(2-acryloyl-1-methyl-2,6-diazaspiro[3.4]octan-6-yl)-6-(5-methyl-1H-indazol-4-yl)-4-(pyridin-2-ylmethoxy) benzonitrile] | – | ++ (++ indicates binding activity from 50 to 75%) |
| C=CC(=O)N1CCC2(CCN(c3cc(OCc4ccccn4)cc(-c4c(C)ccc5[nH]ncc45)c3C#N)C2)C1 (stereo not drawn) [Compound I-61, 2-(7-acryloyl-2,7-diazaspiro[4.4]nonan-2-yl)-6-(5-methyl-1H-indazol-4-yl)-4-(pyridin-2-ylmethoxy) benzonitrile] | + (+ indicates binding activity greater than 0% and up to 50%) | – |
| CC#CC(=O)N1CC2(CCN(c3cccc(-c4c(C)ccc5cnn(C)c45)c3C#N)C2)C1 [Compound I-12, 2-(2-(but-2-ynoyl)-2,6-diazaspiro[3.4]octan-6-yl)-6-(1,6-dimethyl-1H-indazol-7-yl)benzonitrile] | + (+ indicates binding activity greater than 0% and up to 50%) | – |
| C=CC(=O)N1CC2(CCN(c3cc(OC[C@@H]4CCCN4C)cc(-c4c(C)ccc5[nH]ncc45)c3C#N)C2)C1 [Compound I-21, 2-(2-acryloyl-2,6-diazaspiro[3.4]octan-6-yl)-6-(5-methyl-1H-indazol-4-yl)-4-(((S)-1-methylpyrrolidin-2-yl)methoxy) benzonitrile] | +++ (+++ indicates binding activity greater than 75%) | – |
| C=CC(=O)N1CC2(CCN(c3cc(OCc4ccccn4)cc(-c4c(C)ccc5[nH]ncc45)c3)CC2)C1 [Compound I-107, 1-(7-(3-(5-methyl-1H-indazol-4-yl)-5-(pyridin-2-ylmethoxy)phenyl)-2,7-diazaspiro[3.5]nonan-2-yl)prop-2-en-1-one] | + (+ indicates binding activity greater than 0% and up to 50%) | – |
